This note sets out measurements from patent US5229409A, “6-substituted-tetrahydrobenz[cd]indoles” (Eli Lilly and Company, priority 1991, dated 1993).

What all share (parameters): species or system rat (male albino)
Data set [1] deals with serotonin. Briefly: whole brain serotonin concentration in vivo in rats. The conditions noted are these: 5 hrs before sacrifice.
Data set [2] relates to 5-hydroxyindole acetic acid (5HIAA). Briefly: whole brain 5-hydroxyindoleacetic acid (5HIAA) concentration in vivo in rats. As to the method:
In another experiment certain compounds of the Examples were evaluated to determine ability to affect the 5-hydroxyindoles serotonin and 5-hydroxyindole acetic acid (5HIAA), and serum corticosterone, in vivo. Male albino rats were injected subcutaneously with an aqueous solution of the compound. The pH of the solution was adjusted as necessary to solubilize the compound. A control of the solution without the test compound was similarly injected into a control animal. […] Trunk blood was collected and allowed to clot. After centrifugation, serum was stored frozen prior to analysis. The whole brain was removed and frozen on dry ice for storage prior to analysis. The serum corticosterone concentration was measured spectrofluorometrically using the procedure of Solem and Brinck-Johnson, "An Evaluation of a Method for Determination of Free Corticosteroids in Minute Quantities of Mouse Plasma", Scand. J. Clin. Lab. Invest., Suppl. 80, p. 1-14 (1965), incorporated herein by reference. 5-Hydroxyindoleacetic acid (5HIAA) concentration in whole brain was measured by liquid chromatography with electrochemical detection as reported by Fuller and Perry, "Effects of Buspirone and its Metabolite, 1-(2-pyrimidinyl)piperazine, on Brain Monoamines and Their Metabolites in Rats", J. Pharmacol. Exp. Ther., 248, p. 50-56 (1989), incorporated herein by reference.

Data set [3] deals with rats. Briefly: death of treated rats in the in vivo 5-hydroxyindole/corticosterone experiment. The conditions noted are these: 3 mg/kg s.c. As to the method: In another experiment certain compounds of the Examples were evaluated to determine ability to affect the 5-hydroxyindoles serotonin and 5-hydroxyindole acetic acid (5HIAA), and serum corticosterone, in vivo. Male albino rats were injected subcutaneously with an aqueous solution of the compound. The pH of the solution was adjusted as necessary to solubilize the compound. A control of the solution without the test compound was similarly injected into a control animal. The rats were decapitated one hour later. Trunk blood was collected and allowed to clot. After centrifugation, serum was stored frozen prior to analysis. The whole brain was removed and frozen on dry ice for storage prior to analysis. The serum corticosterone concentration was measured spectrofluorometrically using the procedure of Solem and Brinck-Johnson, "An Evaluation of a Method for Determination of Free Corticosteroids in Minute Quantities of Mouse Plasma", Scand. J. Clin. Lab. Invest., Suppl. 80, p. 1-14 (1965), incorporated herein by reference. 5-Hydroxyindoleacetic acid (5HIAA) concentration in whole brain was measured by liquid chromatography with electrochemical detection as reported by Fuller and Perry, "Effects of Buspirone and its Metabolite, 1-(2-pyrimidinyl)piperazine, on Brain Monoamines and Their Metabolites in Rats", J. Pharmacol. Exp. Ther., 248, p. 50-56 (1989), incorporated herein by reference.

Where [4] appears, read: 0.0003 mg/kg s.c., 1 hour, series 0.0003-0.03 mg/kg.
[5] abbreviates: 0.003 mg/kg s.c., 1 hour, series 0.0003-0.03 mg/kg.
Setting [6] is: 0.03 mg/kg s.c., 1 hour, series 0.0003-0.03 mg/kg.
[7] abbreviates: 0.03 mg/kg s.c., 1 hour, series 0.03-3 mg/kg.
[8] abbreviates: 0.3 mg/kg s.c., 1 hour, series 0.03-3 mg/kg.
[9] abbreviates: 3 mg/kg s.c., 1 hour, series 0.03-3 mg/kg.

For `CCCN(CCC)[C@@H]1Cc2c[nH]c3ccc(C(C)=O)c(c23)C1` [Example 8, (4S)-(-)-6-acetyl-4-(di-n-propylamino)-1,3,4,5-tetrahydrobenz[cd]indole], the Serotonin came out at 2.77 ± 0.07 nmol/g in data set [1] (0.1 mg/kg orally), 2.47 ± 0.07 nmol/g in data set [1] (0.3 mg/kg orally), 2.86 ± 0.07 nmol/g in data set [1] (1 mg/kg orally) and 2.68 ± 0.11 nmol/g in data set [1] (3 mg/kg orally). In addition, the 5HIAA worked out at 1.91 ± 0.08 nmol/g in data set [2] (setting [4]); 1.47 ± 0.04 nmol/g in data set [2] (setting [5]); 1.59 ± 0.10 nmol/g in data set [2] (setting [6]); 1.31 ± 0.06 nmol/g in data set [2] (setting [7]); 1.67 ± 0.04 nmol/g in data set [2] (0.1 mg/kg orally, 5 hrs before sacrifice); 1.60 ± 0.07 nmol/g in data set [2] (0.3 mg/kg orally, 5 hrs before sacrifice). Also, the 5HIAA in data set [2] (setting [8]) worked out at 1.36 ± 0.04 nmol/g; in data set [2] (1 mg/kg orally, 5 hrs before sacrifice), 1.74 ± 0.05 nmol/g; in data set [2] (3 mg/kg orally, 5 hrs before sacrifice) it was 1.31 ± 0.08 nmol/g; in data set [2] (setting [9]) it was 1.35 ± 0.04 nmol/g.
With `CCCN(CCC)[C@H]1Cc2c[nH]c3ccc(C(C)=O)c(c23)C1` [Example 7, (4R)-(+)-6-acetyl-4-(di-n-propylamino)-1,3,4,5-tetrahydrobenz[cd]indole], the “death of treated rats” value in data set [3] is reported as “dead within one hour”. Besides, the 5HIAA in data set [2] (setting [4]) was found to be 1.93 ± 0.07 nmol/g; in data set [2] (setting [5]), 1.80 ± 0.05 nmol/g; in data set [2] (setting [6]), 1.34 ± 0.07 nmol/g; in data set [2] (setting [7]) it was 1.43 ± 0.02 nmol/g; in data set [2] (setting [8]), 1.37 ± 0.07 nmol/g.
Consider `CCCN(CCC)[C@H]1Cc2c[nH]c3ccc(C(=O)C(C)C)c(c23)C1` [Example 9, (4R)-(+)-6-(2-methylpropanoyl)-4-(di-n-propylamino)-1,3,4,5-tetrahydrobenz[cd]indole], for which the 5HIAA in data set [2] (setting [4]) turned out to be 2.44 ± 0.06 nmol/g; in data set [2] (setting [5]) it was 2.23 ± 0.09 nmol/g; in data set [2] (setting [6]), 1.82 ± 0.08 nmol/g; in data set [2] (setting [7]) it was 1.38 ± 0.02 nmol/g; in data set [2] (setting [8]), 1.22 ± 0.04 nmol/g; in data set [2] (setting [9]) it was 1.38 ± 0.08 nmol/g.
Take `CCCN(CCC)C1Cc2c[nH]c3ccc(C(C)=O)c(c23)C1` (racemic) [Example 2, (±)-6-Acetyl-4-(di-n-propylamino)-1,3,4,5-tetrahydrobenz[cd]indole]: the 5HIAA in data set [2] (setting [4]) was found to be 2.21 ± 0.05 nmol/g; in data set [2] (setting [5]), 1.79 ± 0.10 nmol/g; in data set [2] (setting [6]), 1.95 ± 0.04 nmol/g; in data set [2] (setting [7]), 1.27 ± 0.01 nmol/g; in data set [2] (setting [8]), 1.10 ± 0.06 nmol/g; in data set [2] (setting [9]), 2.04 ± 0.02 nmol/g.
